# Source: patent US11718628B2, “SREBP inhibitors comprising a 6-membered central ring” (Capulus Therapeutics, LLC, priority 2018, dated 2023)
# Columns and labels:
# SREBP = assay: Reporter screening assay (SRE-luciferase reporter construct); type: cell-based; conditions: Homo sapiens; SREBPv1 reporter cell line HepG2, 24 hours, 0.01 uM to 10 uM; read-out: Reporter Screening IC50 (nM) Activity Range
# Method: This assay was used to evaluate the effect on transcriptional activity SREBP of the compounds synthesized according to Examples 1-16, 20, and 22, using an SRE-luciferase reporter construct. On day 1, 10,000 cells were seeded in a 96 well (white) plate as per the plate map in Growth media without antibiotics. Cells were incubated at 37° C. for 8 hours. After 8 hours, cells were washed with DPBS for complete removal of FBS. DPBS was completely removed and Growth media was replaced with phenol free treatment medium (90 μl) with different FBS concentrations. The cells were then incubated at 37° C. for 24 hours with varying doses (0.01 uM to 10 uM) of compounds. Then a Luciferase assay was performed.
# Reagents for performing Luciferase assay were stored at −20° C. To a tube of lyophilized assay substrate was added 1 mL Substrate Solvent and mixed well. The Substrate tube after reconstitution was covered with aluminum foil so as to keep it protected from light. The assay buffer was thawed to room temperature. To 20 mL Assay Buffer was added 200 μL of reconstituted 100× Substrate and mixed well. The reconstituted substrate as well as the assay solution (buffer+substrate) was protected from light throughout the procedure by keeping it covered with aluminum foil.
# Using a multi-channel pipette, 100 μL Assay Solution (buffer+substrate) was added directly to each sample well in Plate 1, which was incubated for 30 min (plate was covered with aluminum foil). After 30 min incubation, the plate was read for total luminescence. Each well was read for 2 seconds in a plate luminometer. (Microplate reader Envision Microplate reader from Perkin Elmer). Precaution was taken to incubate plate exactly for 30 min prior to reading on the plate reader.
# Materials: SREBPv1 Reporter cell line: HepG2—#32251. Growth Medium: MEM (Corning 10-010), 10% FBS, 1% GlutaMax (Invitrogen Catalog #35050061), […] (Invitrogen Catalog #A1113803) and 1% Penicillin-Streptomycin (Pen-Strep). Treatment Media: Phenol-free MEM (Invitrogen Catalog #51200-038) and 1% GlutaMax (Invitrogen Catalog #35050061). Luciferase Assay: LightSwitch Luciferase Assay Kit (Catalog #32032). LDH assay: Pierce LDH Cytotoxicity Assay Kit (Catalog #SD249616).
# [1] = In vivo pharmacokinetic properties in rats (IV and PO); set-up: species or system male Sprague Dawley rats
# Method: (§1) The in vivo pharmacokinetic properties of compounds by both intravenous and oral administration were evaluated in male Sprague Dawley rats or C57BL/6J mice.
# (§2) Animals were housed in cages with clean bedding. Certified rodent diet was provided. Water was available ad libitum. Environmental controls for the animal room were set to maintain a temperature of 22° C. to 25° C., humidity of 40-70% RH, and a 12-hour light/12-hour dark cycle. Normal healthy animals certified by the attending veterinarian were selected and acclimatized for minimum three days prior to initiation of study.
# Surgical Procedure for Jugular Vein Cannulation of Rats: Rats were anaesthetized with a single dose of ketamine 50 mg/kg i.p.+xylazine 6 mg/kg i.p. The right jugular vein was exposed, a loose ligature was placed caudally, and the cranial end of vein was ligated. A small incision was made between the ligatures into which the catheter (polyethylene 50 tubing of internal diameter 0.58 mm and outer diameter 0.96 mm) was inserted. The catheter was secured in place by tying the loose ligature around the catheterized vessel. A small incision was made in the scapular region to serve as the exit site of the catheter. The catheter was subcutaneously tunneled and exteriorized through scapular incision. A stay suture was placed in the scapular area. Patency was tested, and catheter was filled with a locking solution (heparinized saline) and sealed with a stainless steel plug. The incision was then sutured with sterile suturing material. Anti-septic solution was applied to the sutured site and animal was placed back in the home cage.
# (§3) To evaluate pharmacokinetic properties of intravenous delivery, male Sprague Dawley rats were administered 2.00 mg compound/kg animal weight through the tail vein. The concentration of the compound in the plasma of the animals was evaluated at 0.083, 0.25, 0.5, 1, 2, 4, 8, 12 and 24 hr by taking blood samples from the cannulated jugular vein. For the C5Bl/6J mice, blood samples were collected through a capillary, guided in retro-orbital plexus.
# To evaluate pharmacokinetic properties of oral delivery, rats (male Sprague Dawley rats) or mice (C5Bl/6J) were administered 10 mg compound/kg animal weight by mouth. The concentration of compound in the plasma of the animals was evaluated at 0.25, 0.5, 1, 2, 4, 6, 8, 12 and 24 hr by taking blood samples from the cannulated jugular vein (rats) or through a capillary, guided in retro-orbital plexus (mice).
# [2] = In vivo pharmacokinetic properties in mice (IV and PO); set-up: species or system C57BL/6J mice; conditions: mouse, in vivo
# Method: as §1, §2, §3
# […] The concentration of compound in the plasma of the animals was evaluated at 0.25, 0.5, 1, 2, 4, 6, 8, 12 and 24 hr by taking blood samples from the cannulated jugular vein (rats) or through a capillary, guided in retro-orbital plexus (mice).
# [3] = test system: liver gene expression (ACACA, ACLY, FASN, LSS, PNPLA3); assay: Liver gene expression in mice after oral administration; type: in vivo; conditions: 30 mpk, vs vehicle
# Method: (§4) The pharmacodynamic properties of selected compounds were evaluated in mice. The animals were housed in cages with clean bedding, and maintained and monitored for good health in accordance with Test Facility SOPs and at the discretion of the laboratory animal veterinarian. Certified rodent diet was provided. Food and water was available ad libitum. Environmental controls for the animal room were set to maintain a temperature of 22° C. to 25° C., humidity of 40-70% RH, and a 12-hour light/[…]. Normal healthy animals certified by the attending veterinarian were selected and acclimatized for minimum three days prior to initiation of study. Animals were identified with body markings.
# (§5) Aliquots of the compounds being evaluated were weighed and triturated with 0.5% methylcellulose (with the addition of 5% N-methyl pyrrolidone when required to remove clumping, as for Z-806) to an appropriate dose concentration. Vials were labeled with the information about study number, test item, concentration and date of preparation. A description of appearance of formulation was recorded (e.g., color, turbidity, etc.). The composition of formulation vehicle was recorded. An aliquot of each dose solution was taken before the dosing began and after dosing was finished, and stored at approximately −20° C. or below for subsequent analysis. The animals were dosed orally through oral gavage needle, and time of dosing was recorded.
# (§6) Liver Collection at 6 h or 24 h: Immediately after blood withdrawal for pharmacokinetic evaluation (at 6 or at 24 h), liver tissue was collected without perfusion. Animals were euthanized using carbon dioxide gas in a CO2 chamber. The whole blood was drained by cutting the both side jugular vein and abdominal aorta. The liver was separated out. All the liver samples were divided in two parts. The first part (200 mg approx.) was snap frozen using liquid nitrogen as soon as possible. These samples were immediately transferred to −80° C. for storage. The remaining part was weighed and used for bioanalysis.
# RNA Processing and Gene Expression Analysis: Liver Tissue RNA was harvested with the RNEasy kit and 20-100 ng used to synthesize cDNA with random primers following the manufacturer's protocol. Quantitative PCR was performed on 1 pg to 100 ng cDNA for the following genes: ACACA, ACLY, FASN, LSS, PNPLA3. Gene expression levels were determined using ΔΔCT method comparing treated to vehicle treated samples as a baseline, and fold change calculated. The average value for all 5 genes above was averaged and termed to Total Fold Change The results from this evaluation are presented in Table 8.
# [4] = Plasma and liver compound levels in mice after oral administration; type: in vivo; conditions: 30 mpk
# Method: as §4, §5
# After dosing, the mice were anesthetized using gaseous anesthesia. Blood samples were collected through a capillary, guided in retro-orbital plexus, at 6 h or at 24 h. Approximately 100 uL of blood was collected from each mouse, in pre-labeled tubes. The collected blood was stored on ice prior to centrifugation. Blood samples were then centrifuged within 1 hour of collection to separate plasma. Centrifugation was conducted at 2500×g for 15 minutes at 4° C. The plasma was separated and transferred to pre-labeled micro-centrifuge tubes and promptly frozen at −80±10° C. until bioanalysis.
# as §6
smiles,measurement,setting,value
"CC(C)(C)c1cc(-c2cc(-c3ccc(C(=O)N4CCC(O)CC4)cc3Cl)ncn2)ccn1 [Compound 8, (4-(6-(2-(tert-butyl)pyridin-4-yl)pyrimidin-4-yl)-3-chlorophenyl)(4-hydroxypiperidin-1-yl)methanone]",IC50,SREBP,≤ 1000 nM
"CC(C)(C)c1cc(-c2cncc(-c3ccc(C(=O)N4CCC(O)CC4)cc3Cl)n2)ccn1 [Compound 9, (4-(6-(2-(tert-butyl)pyridin-4-yl)pyrazin-2-yl)-3-chlorophenyl)(4-hydroxypiperidin-1-yl)methanone]",IC50,SREBP,≤ 1000 nM
"COc1ncc(-c2ccnc(C(C)(C)C)c2)cc1-c1ccc(C(=O)N2CCC(O)CC2)cc1Cl [Compound 10, (4-(2′-(tert-butyl)-6-methoxy-[3,4′-bipyridin]-5-yl)-3-chlorophenyl)(4-hydroxypiperidin-1-yl)methanone]",IC50,SREBP,≤ 3000 nM
"CC(C)NC(=O)Nc1ccc(-c2cncc(-c3ccnc(C(C)(C)C)c3)c2)c(Cl)c1 [Compound 11, 1-(4-(2′-(tert-butyl)-[3,4′-bipyridin]-5-yl)-3-chlorophenyl)-3-isopropylurea]",IC50,SREBP,≤ 1000 nM
"O=C(c1ccc(-c2cncc(-c3ccnc(C4OCCO4)c3)c2)c(Cl)c1)N1CCC(O)CC1 [Compound 12, (4-(2′-(1,3-dioxolan-2-yl)-[3,4′-bipyridin]-5-yl)-3-chlorophenyl)(4-hydroxypiperidin-1-yl)methanone]",IC50,SREBP,≤ 1000 nM
"CC(C)(C)OC(=O)NC1CCCN(C(=O)c2ccc(-c3cncc(-c4ccnc(C(C)(C)C)c4)c3)c(Cl)c2)C1 (centres unmarked) [Compound 13, tert-butyl (1-(4-(2′-(tert-butyl)-[3,4′-bipyridin]-5-yl)-3-chlorobenzoyl)piperidin-3-yl)carbamate]",IC50,SREBP,≤ 500 nM
"CC(C)(C)c1cc(-c2cncc(-c3ccc(C(=O)N4CCCC(O)C4)cc3Cl)c2)ccn1 (centres unmarked) [Compound 14, (4-(2′-(tert-butyl)-[3,4′-bipyridin]-5-yl)-3-chlorophenyl)(3-hydroxypiperidin-1-yl)methanone]",IC50,SREBP,≤ 100 nM
"COC1CCCN(C(=O)c2ccc(-c3cncc(-c4ccnc(C(C)(C)C)c4)c3)c(Cl)c2)C1 (centres unmarked) [Compound 15, (4-(2′-(tert-butyl)-[3,4′-bipyridin]-5-yl)-3-chlorophenyl)(3-methoxypiperidin-1-yl)methanone]",IC50,SREBP,≤ 100 nM
"CC(C)OC(=O)Nc1ccc(-c2cncc(-c3ccnc(C(C)(C)C)c3)c2)c(Cl)c1 [Compound 16, isopropyl (4-(2′-(tert-butyl)-[3,4′-bipyridin]-5-yl)-3-chlorophenyl)carbamate]",IC50,SREBP,≤ 500 nM
"CC(C)OC(=O)Nc1ccc(-c2cncc(-c3ccnc(C4OCCO4)c3)c2)c(Cl)c1 [Compound 20, Isopropyl (4-(2′-(1,3-dioxolan-2-yl)-[3,4′-bipyridin]-5-yl)-3-chlorophenyl)carbamate]",IC50,SREBP,≤ 500 nM
"CC1(O)CCCN(C(=O)c2ccc(-c3cncc(-c4ccnc(C(C)(C)C)c4)c3)c(Cl)c2)C1 (centres unmarked) [Compound 22, (4-(2′-(tert-butyl)-[3,4′-bipyridin]-5-yl)-3-chlorophenyl)(3-hydroxy-3-methylpiperidin-1-yl)methanone]",IC50,SREBP,≤ 500 nM
CC(C)(C)c1cc(-c2cncc(-c3c(Cl)cc(C(=O)N4CCC(O)CC4)cc3Cl)c2)ccn1 [Z-826],Intravenous Delivery (IV) CL,"[1]; IV, 2 mg/kg",10.7 mL/min/kg
same,Intravenous Delivery (IV) T1/2,"[1]; IV, 2 mg/kg",3.19 h
same,Intravenous Delivery (IV) Vd,"[1]; IV, 2 mg/kg",2.97 L/kg
same,% F (Bioavailability of oral delivery),[1]; PO 10 mg/kg vs IV 2 mg/kg,35%
same,Oral Administration (PO) AUC0-last,"[1]; PO, 10 mg/kg",5387
same,Oral Administration (PO) T1/2,"[1]; PO, 10 mg/kg",3.05 h
same,Oral Administration (PO) Tmax,"[1]; PO, 10 mg/kg",1 h
same,% F (Bioavailability of oral delivery),[2],82%
same,Intravenous Delivery (IV) AUC0-last,"[2]; iv, 2 mg/kg",3930 ng·h/mL
same,Intravenous Delivery (IV) CL,"[2]; iv, 2 mg/kg",8.45 mL/min/kg
same,Intravenous Delivery (IV) T1/2,"[2]; iv, 2 mg/kg",3.24 h
same,Intravenous Delivery (IV) Vd,"[2]; iv, 2 mg/kg",2.37 L/kg
same,Oral Administration (PO) AUC0-last,"[2]; po, 10 mg/kg",15000 ng·h/mL
same,Oral Administration (PO) T1/2,"[2]; po, 10 mg/kg",6.2 h
same,Oral Administration (PO) Tmax,"[2]; po, 10 mg/kg",0.25 h
same,Total Gene FC Time (6 h),[3]; 6 h,+ (>0.751 = +)
same,Total Gene FC Time (24 h),[3]; 24 h,++ (0.51-0.7509 = ++)
same,Liver ng/mg (6 h),[4]; 6 h,>1000 ng/mg
same,Plasma ng/mL (6 h),[4]; 6 h,>1000 ng/mL
same,Liver ng/mg 24 h,[4]; 24 h,>1000 ng/mg
same,Plasma ng/mL (24 h),[4]; 24 h,100 to 1000 ng/mL
